The conditions of series [1]: MST; described in WO2021183908A1; cited from earlier work.
The test system of series [2] is senescent cells. The series is described as follows: Viability of senescent cells (CellTiter-Glo), Example 17, Table 13. The note with it: doxorubicin-induced senescent cells, 0 μM = 100. A general note: In ATP-based viability assays light output follows the ATP content of the culture.
Experimental: Cells induced to undergo senescence by doxorubicin treatment were treated with test compound at designated concentrations and measured using the CellTiter-Glo Luminescent Cell Viability Assay (Promega).
Series [3] deals with carbon tetrachloride-induced liver fibrosis mice. The series can be described thus: Carbon tetrachloride-induced liver fibrosis mice, Example 31, Table 57. It counts as in vivo, mouse. The note with it: CCl4-induced liver fibrosis mice, untreated = 100%. The procedure, abridged: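 Mice with induced hepatic fibrosis received either the test compound or, as controls, an equal volume of vehicle solution alone. Once dosing ended, liver tissue was harvested and total RNA was isolated. cDNA was synthesized from this RNA, and quantitative RT-PCR was run on it to measure hepatic mRNA levels of the fibrosis- and senescence-related genes.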

Series [4] concerns naturally aged mice. The series is described as follows: Anti-aging evaluation in naturally aged mice, Example 31, Table 55.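 On all read-outs here: Vehicle-dosed control mice received solution alone at matching volume, values compare test-compound-treated aged mice against that control.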 In kind it is in vivo, mouse. The note with it: for Femur Ctsk mRNA / Kidney Agtr1a mRNA / Liver IL6 mRNA / Liver MMP3 mRNA / Liver p16 mRNA / Open Field Test Time in Center: untreated = 100%; for Heart Sur2a mRNA / Joint Col2a1 mRNA / Skin Col1a1 mRNA / Skin SDF1 mRNA: untreated = 1.0; for Muscle Mass: untreated 0.64 g; for Fat Mass: untreated 0.82 g; for Cataract incidence: untreated 83%.

The subject of series [5] is senescent A549 cells. The series can be described thus: Viability of senescent A549 cells (CellTiter-Glo), Example 18, Table 15. The note with it: doxorubicin-induced senescent A549 cells, 0 μM = 100%.
Experimental: Senescence-induced cancer cells treated with doxorubicin were treated with the test compound at designated concentrations, and cell viability was measured using the CellTiter-Glo Luminescent Cell Viability Assay (Promega).
The test system of series [6] is bleomycin-induced pulmonary fibrosis mice. The series can be described thus: Bleomycin-induced pulmonary fibrosis mice, Example 31, Table 56. In kind it is in vivo, mouse. The note with it: untreated = 100%. The procedure, abridged:
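Mice with bleomycin-induced pulmonary fibrosis, untreated or given test compound, with vehicle-only controls. Lung tissue collected for RNA extraction and qRT-PCR analysis.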

In series [7] the test system is HMGN1 secreted from senescent A549 cells. The series is described as follows: HMGN1 secretion (ELISA) from senescent A549 cells, Example 18, Table 14. In kind it is cell-based, human. The note with it: doxorubicin-senescent A549, without test compound (DMSO) = 100%; 30 μM (LX-5211, LX-5433, LX-6530, LX-6800, LX-9105, LX-9118, LX-9131, LX-9136, LX-9302, LX-9321, LX-9565, LX-9602 at 90 μM; LX-9336 at 2.4 mM).
Experimental: On the other hand, in cancer cells treated with doxorubicin, where senescence was induced, the amount of HMGN1 measured under conditions where cells were not treated with the test compound was calculated as 100%, and the amount of HMGN1 was measured under conditions where the senescent cancer cells were treated with the test compound.

In series [8] the test system is HMGN1 secreted from senescent cells. The series is described as follows: HMGN1 secretion (ELISA) from doxorubicin-induced senescent cells, Example 17. In kind it is cell-based, human. The note with it: senescent untreated = 100%; 30 μM; 90 μM for LX-5211, 5433, 6530, 9105, 9118, 9321, 9602; 2.4 mM for LX-9336. On the technique in general: An ELISA detects its analyte on a solid surface through an enzyme-linked reagent.

For series [9], the system named is naturally aged C57BL6J mice. The series can be described thus: Geriatric depression and anxiety in aged mice, Example 21-8. In kind it is in vivo, mouse. The note with it: aged mice. From the text: The amount of senescent-associated secretory factor (SASP) in serum and tissues collected from mice of Examples 21-5 and 21-6 was reduced by treatment with LX-5701, LX-2101, or LX-2102. It was confirmed that removing senescent cells, which increase with aging in mice, and effectively reducing the amount of senescent-associated secretory factor (SASP) can improve symptoms of geriatric depression and anxiety.

Series [10] deals with obesity-induced aged C57BL6J mice. The series is described as follows: Anxiety, depression, lethargy (open field test) in obesity-aged mice, Example 23-4, Table 44. It counts as in vivo, mouse. The note with it: obesity-aged mice. The procedure: 15-week-old male C57BL6J mice (The Jackson Laboratory) were induced to obesity by a high-fat diet using the same method as in Example 9-1 WO2023-085787 A1. After acclimation to the experimental environment for one week, the mice were randomly assigned to experimental and control groups. […] LX-3002 was mixed in distilled water with 4% DMSO, 30% PEG300, and 5% Tween80 and administered orally at a concentration of 10 mg/kg daily for 21 days. LX-5701 was mixed in PBS and administered orally at a concentration of 360 mg/kg daily for 21 days. LX-6807 was mixed in saline and administered intraperitoneally at a concentration of 1 mg/kg daily for 21 days. The control group received only the solution in the same volume. After the end of drug administration, the methods described in each example below were performed.
It was determined that anxiety and depression caused by obesity are not causally related to increased body weight, but rather are caused by the accumulation of senescent cells. Accordingly, an activity assessment (open field test) was performed using the same method as in Example 7-7 of WO2023-085787 A1 to analyze lethargy caused by anxiety and depression caused by obesity in mice. The table below quantitatively represents activity, a criterion for assessing lethargy due to anxiety and depression, under conditions in which aging was induced by obesity and the test compound was not administered or was administered. The activity assessment after obesity-induced aging was calculated as 100% and compared with the activity assessment after test compound treatment.

In the case of `CC(C)(C)OC(=O)CCCCCN1C(=O)c2ccccc2C1=O` [QW-029], the Kd in series [1] was 2100 nM.

With `COC[C@]1(CO)C(=O)[C@H]2CC[N@]1[C@H](C)C2` [LX-5731, (1R,2R,4S,6R)-2-(hydroxymethyl)-2-(methoxymethyl)-6-methylquinuclidin-3-one], the “Survival (%)” value in [2] (1.1 μM) is reported as 98.8%. The “Survival (%)” value in series [2] (10 μM) worked out at 48.2%. The “Survival (%)” value in series [2] (30 μM) is on record as 11.7%. Further, the “Survival (%)” value in series [2] ([…]) is on record as 89.8%. In addition, in series [3], the “Liver p16 mRNA” value is recorded as 60 (±6.5) % and the “Col1a1 mRNA” value is reported as 64 (±10.4) %. In [4], the “Femur Ctsk mRNA” value was 44%, the “Heart Sur2a mRNA” value is on record as 2.5 fold, the “Joint Col2a1 mRNA” value is 2.7 fold and the “Kidney Agtr1a mRNA” value came out at 49%. Also, in series [4], the “Liver IL6 mRNA” value is recorded as 42%, the “Liver MMP3 mRNA” value was 77%, the “Liver p16 mRNA” value amounted to 58% and the “Open Field Test Time in Center” value worked out at 237%. Besides, in series [4], the “Skin Col1a1 mRNA” value was 2.3 Fold, the “Skin SDF1 mRNA” value is reported as 2.0 fold, the “Muscle Mass” value turned out to be 0.71 g and the “Fat Mass” value worked out at 1.01 g. The same molecule yielded a Cataract incidence in [4] of 72%. In series [5] (1.1 μM), the “Survival (%)” value is given as 94.4%. The “Survival (%)” value in [5] (10 μM) came out at 30.6%. In addition, in series [5] ([…]), the “Survival (%)” value was 83.1%. Besides, in [6], the “Lung p16 mRNA” value was 69 (±3.7) % and the “Col1a1 mRNA” value is 62 (±13.8) %. In series [7], this molecule had an HMGN1 of 307%. In series [8], this molecule yielded an HMGN1 of 235%.

Regarding `CC(C(=O)OC(C)(C)C)N1C(=O)c2ccccc2C1=O` (centres unmarked) [QW-023], the dissociation constant Kd in series [1] is 1780 nM.

`CC(C)(C)OC(=O)C(C)(C)N1C(=O)c2ccccc2C1=O` [QW-020]: the Kd in [1] is 2140 nM.

In the case of `CC(C)OC(=O)CCCN1C(=O)c2ccccc2C1=O` [QW-017], in [1], the Kd is 399 nM.

For `CC(C)(C)OC(=O)C(N1C(=O)c2ccccc2C1=O)C(C)(C)C` (centres unmarked) [QW-034], the Kd in series [1] is 979 nM.

Turning to `CCNCc1nc2c(O)c(Cl)cc(Cl)c2c(=O)n1C` [LX-9421], in series [2] (1.1 μM), the “Survival (%)” value was 92.1%. For the same molecule, the “Survival (%)” value in series [2] (10 μM) is given as 67.9%. The “Survival (%)” value in series [2] (30 μM) worked out at 25.9%. Also, the “Survival (%)” value in series [2] ([…]) amounted to 89.3%. Further, in series [3], the “Liver p16 mRNA” value is 59 (±5.4) % and the “Col1a1 mRNA” value is given as 34 (±3.7) %. Moreover, in [4], the “Femur Ctsk mRNA” value is listed as 44%, the “Heart Sur2a mRNA” value was determined as 2.1 fold, the “Joint Col2a1 mRNA” value is 2.8 fold and the “Kidney Agtr1a mRNA” value is listed as 46%. Further, in [4], the “Liver IL6 mRNA” value was 41%, the “Liver MMP3 mRNA” value is on record as 32%, the “Liver p16 mRNA” value was 57% and the “Open Field Test Time in Center” value is 222%. For the same molecule, in series [4], the “Skin Col1a1 mRNA” value worked out at 2.3 Fold, the “Skin SDF1 mRNA” value turned out to be 2.6 fold, the “Muscle Mass” value is listed as 0.78 g and the “Fat Mass” value came to 0.99 g. The Cataract incidence in series [4] was determined as 54%. Further, the “Survival (%)” value in series [5] (1.1 μM) is on record as 102.9%. Also, the “Survival (%)” value in series [5] (10 μM) is 62.3%. Moreover, in series [5] (30 μM), the “Survival (%)” value came out at 20.7%. The “Survival (%)” value in series [5] ([…]) was 83.3%. Further, in [6], the “Lung p16 mRNA” value was 35 (±1.6) % and the “Col1a1 mRNA” value is recorded as 40 (±2.0) %. Also, in [7], the HMGN1 is given as 284%. In [8], this molecule gave an HMGN1 of 201%.

For the molecule `Nc1cc(COc2c(Cl)cc(C[C@H](N)C(=O)O)cc2Cl)c2oc(-c3ccccc3)nc2c1` [LX-6233, Nanvuranlat], the “Survival (%)” value in series [2] (1.1 μM) was found to be 83.7%; in [2] (10 μM) it was 32.7%; in series [2] (30 μM), 11.3%; in [2] ([…]), 61.2%; in series [5] (1.1 μM), 91.8%; in [5] (10 μM) it was 34.5%. Besides, the “Survival (%)” value in [5] (30 μM) is reported as 10.1%; in series [5] ([…]), 72.4%. In addition, the HMGN1 turned out to be 228% in series [7] and 241% in series [8].

As for `CCC(C)C(C(=O)OC(C)(C)C)N1C(=O)c2ccccc2C1=O` (centres unmarked) [QW-050], the Kd in series [1] is 2430 nM.

For Batiraxcept [LX-6982], the “Survival (%)” value in series [2] (1.1 μM) is given as 95.1%; in series [2] (10 μM), 74.6%; in series [2] (30 μM), 10.5%; in [2] ([…]) it was 86.8%; in series [5] (1.1 μM), 90.9%; in [5] (10 μM), 77.8%. The “Survival (%)” value in [5] (30 μM) amounted to 6.9%; in series [5] ([…]), 88.9%. The HMGN1 in series [7] came out at 306%; in series [8], 234%.

Consider `CC(C)(C)OC(=O)CCN1C(=O)c2ccccc2C1=O` [QW-011], for which the Kd in series [1] is 926 nM.

On to `CCCCCC/C=C\CCCCCCCCCC(=O)N[C@H]1[C@H](OC[C@H]2O[C@H](OP(=O)([O-])[O-])[C@H](NC(=O)CC(=O)CCCCCCCCCCC)[C@@H](OCCCCCCCCCC)[C@@H]2O)O[C@H](COC)[C@@H](OP(=O)([O-])[O-])[C@@H]1OCC[C@@H](CCCCCCC)OC.[Na+].[Na+].[Na+].[Na+]` [LX-9136, Eritoran tetrasodium], for which the “Survival (%)” value was found to be 84.6% in [2] (1.1 μM); 71.1% in series [2] (10 μM); 23.1% in series [2] (30 μM); 76.9% in series [2] ([…]); 91.1% in series [5] (1.1 μM); 70.9% in series [5] (10 μM). Further, the “Survival (%)” value in series [5] (30 μM) came out at 44.8%; in series [5] (90 μM), 6.7%; in series [5] ([…]) it was 83.4%. Moreover, the results for the HMGN1 in [7] and in [8] were 296% and 263%, respectively.

For `CN(CCOc1ccc(CC2SC(=O)NC2=O)cc1)c1ccccn1` (centres unmarked) [LX-9423, Rosiglitazone], the “Survival (%)” value in series [2] (1.1 μM) was determined as 79.5%; in [2] (10 μM), 25.4%; in series [2] (30 μM), 8.7%; in [2] ([…]), 71.8%; in [5] (1.1 μM), 82.1%; in series [5] (10 μM) it was 39.8%. For the same molecule, the “Survival (%)” value in [5] (30 μM) was found to be 3.0%; in [5] ([…]) it was 78.3%. Moreover, the “amount of SASP, p16, SA-β-gal, lipofuscin” value in series [9] is listed as “reduced”. Besides, in series [9], the “symptoms of geriatric depression and anxiety” value is given as “improved”. Moreover, in series [10], the geriatric depression entry is “similarly improving geriatric depression”. The HMGN1 in [7] was 239%; in series [8] it was 227%.

For orientation: Kd means a measure of binding affinity in units of concentration.

Source of the values: patent US20260306460A1, “COMPOSITION FOR REMOVING AND INHIBITING SENESCENT CELLS, AND USES THEREOF” (LIFECEUTIX CO., LTD., priority 2023, published 2026).
